Source: patent publication US20260116921A1, “PEPTIDE INHIBITORS OF INTERLEUKIN-23 RECEPTOR AND THEIR USE TO TREAT INFLAMMATORY DISEASES” (priority 2018, published 2026)
Numbered stars: 1 amine (or outer) side, 2 acyl side, 3 side chain; on linkers, the order of the positions; unused ones are H or OH. Bridge positions count the residues as written; N and C are the ends. Square brackets hold non-standard residues; d marks the D form. Peptide text beside a SMILES is read from it. Trp(7-nPr) = CCCc1cccc2c(C[C@H](N[*:1])C(=O)[*:2])c[nH]c12; Trp(7-Me) = Cc1cccc2c(C[C@H](N)C(=O)O)c[nH]c12; 2Nal = N[C@@H](Cc1ccc2ccccc2c1)C(=O)O; AEF = NCCOc1ccc(C[C@H](N)C(=O)O)cc1; Cit = NC(=O)NCCC[C@H](N)C(=O)O; αMeL = CC(C)C[C@](C)(N)C(=O)O; Pen = CC(C)(S)[C@H](N)C(=O)O; αMeK = C[C@](N)(CCCCN)C(=O)O; Abu = CC[C@H](N)C(=O)O; βAla = NCCC(=O)O

T1: IL-23R (Homo sapiens, UniProt Q5VWK5)
T1 sequence (Q5VWK5 24-629): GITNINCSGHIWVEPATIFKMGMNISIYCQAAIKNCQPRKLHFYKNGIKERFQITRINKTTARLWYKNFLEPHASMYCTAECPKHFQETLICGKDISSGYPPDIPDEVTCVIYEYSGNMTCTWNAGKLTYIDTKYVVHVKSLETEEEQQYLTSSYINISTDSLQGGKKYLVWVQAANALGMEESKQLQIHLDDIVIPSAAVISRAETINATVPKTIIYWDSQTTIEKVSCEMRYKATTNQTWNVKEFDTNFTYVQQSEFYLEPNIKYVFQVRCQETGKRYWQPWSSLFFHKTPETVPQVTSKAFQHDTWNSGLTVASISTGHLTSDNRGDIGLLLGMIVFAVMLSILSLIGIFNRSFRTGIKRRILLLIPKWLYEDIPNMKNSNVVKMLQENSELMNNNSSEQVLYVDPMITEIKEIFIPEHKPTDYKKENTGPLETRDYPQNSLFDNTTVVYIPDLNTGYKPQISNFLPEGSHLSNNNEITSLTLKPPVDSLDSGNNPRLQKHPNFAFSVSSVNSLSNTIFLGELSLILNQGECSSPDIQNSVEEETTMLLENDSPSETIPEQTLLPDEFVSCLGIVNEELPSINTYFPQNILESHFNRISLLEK

T2: IL-23R (human, UniProt Q5VWK5 24-629)
T2 sequence (looked up): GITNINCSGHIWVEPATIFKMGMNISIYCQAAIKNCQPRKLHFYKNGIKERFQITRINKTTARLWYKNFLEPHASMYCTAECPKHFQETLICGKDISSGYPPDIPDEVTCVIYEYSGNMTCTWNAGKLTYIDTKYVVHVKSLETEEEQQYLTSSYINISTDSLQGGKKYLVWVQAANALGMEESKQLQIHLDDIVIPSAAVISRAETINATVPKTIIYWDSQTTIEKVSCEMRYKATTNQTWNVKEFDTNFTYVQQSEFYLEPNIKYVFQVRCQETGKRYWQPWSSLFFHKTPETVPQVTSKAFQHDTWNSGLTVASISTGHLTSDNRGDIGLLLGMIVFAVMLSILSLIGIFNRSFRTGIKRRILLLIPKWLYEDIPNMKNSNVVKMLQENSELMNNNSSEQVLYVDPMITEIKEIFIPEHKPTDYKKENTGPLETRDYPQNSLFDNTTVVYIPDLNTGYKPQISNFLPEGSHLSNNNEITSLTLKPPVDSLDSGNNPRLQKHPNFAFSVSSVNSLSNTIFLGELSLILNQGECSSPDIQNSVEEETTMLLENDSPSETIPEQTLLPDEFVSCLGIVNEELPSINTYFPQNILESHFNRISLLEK


Legend:
IL-23R [1] = molecular target: T1, IL-23R; experiment: DB cells IL23R pSTAT3 cell assay (pStat3 HTRF); format: cell-based; conditions: Table E3; DB cells, IL-23 0.5 nM, 30 minutes at 37° C.; read-out: pStat3 HTRF (IC50)
Summary of the method: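 DB cells (5×10E5/well, RPMI-1640 + 10% FBS) stimulated with 0.5 nM final IL-23 plus serially diluted test peptides for 30 min at 37 °C, 5% CO2. Phospho-STAT3 (Tyr705) in lysates measured by HTRF using a two-plate protocol.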

NK cells = experiment: NK cell based assay (IL-23/IL-18-induced IFNγ, Quantikine ELISA); conditions: human primary NK cells, IL-23 at EC50 to EC75 + IL-18 10 ng/mL, IFNγ after 20 to 24 hours
Description: killer (NK) cells, purified from human peripheral blood of healthy donors by negative selection (Miltenyi Biotech, Cat #130-092-657), were cultured in complete media (RPMI 1640 containing […], L-glutamine and penicillin-streptomycin) in the presence of IL-2 (RnD, Cat #202-IL-010/CF) at 25 ng/mL. After 7 days, cells were centrifuged, and resuspended in complete media at IE6 cells/mL. […] After 20 to 24 hours, IFNγ in the supernatant was quantified using Quantikine ELISA (RnD, Cat #DIF50).

in vitro [2] = conditions: cynomolgus monkey, 20% fecal homogenate (supernatant), anaerobic, pH 6.8
in vitro [3] = conditions: both, SD, rat, plasma (EDTA)
in vitro [4] = conditions: human, 20% fecal homogenate (supernatant), anaerobic, pH 6.8
IL-23R [5] = molecular target: T2, IL-23R; experiment: cell-based or functional assay
IL-23R [6] = molecular target: T2, IL-23R; experiment: cell-based or functional assay; remark: listed apart in the source

NK Cell Assay (nM) IC50 (IL-23R [5])	pStat3 HTRF (nM) IC50 (IL-23R [6])	Molecule	IC50 (IL-23R [1])	IC50 (NK cells)	half-life at 20 μM (in vitro [2])	half-life at 20 μM (in vitro [3])	half-life at 20 μM (in vitro [4])
–	–	CC(=O)NCCCC[C@@H]1NC(=O)[C@H](Cc2c[nH]c3c(C)cccc23)NC(=O)[C@H]([C@@H](C)O)NC(=O)[C@H](CC(N)=O)NC(=O)[C@@H](NC(C)=O)C(C)(C)SSC(C)(C)[C@@H](C(=O)N[C@@H](Cc2ccc(OCCN)cc2)C(=O)N[C@@H](Cc2ccc3ccccc3c2)C(=O)N[C@@](C)(CCCCN)C(=O)N[C@@H](CCCCNC(C)=O)C(=O)N[C@@H](CC(N)=O)C(=O)NCCC(N)=O)NC1=O [compound 242]	< 0.001 µM	< 0.01 µM	8 h	> 24 h	> 24 h
–	–	CC(=O)NCCCC[C@H](NC(=O)[C@](C)(CC(C)C)NC(=O)[C@H](Cc1ccc2ccccc2c1)NC(=O)[C@H](Cc1ccc(OCCN)cc1)NC(=O)[C@H]1NC(=O)[C@H](CCC(N)=O)NC(=O)[C@H](Cc2c[nH]c3c(C)cccc23)NC(=O)[C@H]([C@@H](C)O)NC(=O)[C@H](CC(N)=O)NC(=O)[C@@H](NC(C)=O)C(C)(C)SSC1(C)C)C(=O)N[C@@H](CCCNC(N)=O)C(=O)NCCC(N)=O [compound 206]	0.01 to 0.1 µM	0.011 to 0.1 µM	> 24 h	–	20 h
–	–	CC(=O)NCCCC[C@H](NC(=O)[C@](C)(CCCCN)NC(=O)[C@H](Cc1ccc2ccccc2c1)NC(=O)[C@H](Cc1ccc(OCCN)cc1)NC(=O)[C@H]1NC(=O)[C@H](CCC(N)=O)NC(=O)[C@H](Cc2c[nH]c3c(C)cccc23)NC(=O)[C@H]([C@@H](C)O)NC(=O)[C@H](CC(N)=O)NC(=O)[C@@H](NC(C)=O)C(C)(C)SSC1(C)C)C(=O)N[C@@H](CC(N)=O)C(=O)NCCC(N)=O [compound 202]	0.001 to 0.01 µM	< 0.01 µM	12 h	–	–
–	–	CC(=O)NCCCC[C@H](NC(=O)[C@](C)(CC(C)C)NC(=O)[C@H](Cc1ccc2ccccc2c1)NC(=O)[C@H](Cc1ccc(OCCN)cc1)NC(=O)[C@H]1NC(=O)[C@H](CCC(N)=O)NC(=O)[C@H](Cc2c[nH]c3c(C)cccc23)NC(=O)[C@H]([C@@H](C)O)NC(=O)[C@H](CC(N)=O)NC(=O)[C@@H](NC(C)=O)C(C)(C)SSC1(C)C)C(=O)N[C@@](C)(CC(C)C)C(=O)NCCC(N)=O [compound 225]	0.01 to 0.1 µM	0.101 to 0.5 µM	> 24 h	–	> 24 h
–	–	CC(=O)NCCCC[C@H](NC(=O)[C@](C)(CC(C)C)NC(=O)[C@H](Cc1ccc2ccccc2c1)NC(=O)[C@H](Cc1ccc(OCCN)cc1)NC(=O)[C@H]1NC(=O)[C@H](CCCNC(N)=O)NC(=O)[C@H](Cc2c[nH]c3c(C)cccc23)NC(=O)[C@H]([C@@H](C)O)NC(=O)[C@H](CC(N)=O)NC(=O)[C@@H](NC(C)=O)C(C)(C)SSC1(C)C)C(=O)N[C@@H](CC(N)=O)C(=O)NCCC(N)=O [compound 227] (Ac-[Pen]NT[Trp(7-Me)][Cit][Pen][AEF][2Nal][αMeL]K(Ac)N[βAla]-NH2; disulfide 1-6)	< 0.001 µM	< 0.01 µM	–	–	–
–	–	CC(=O)NCCCC[C@H](NC(=O)[C@](C)(CC(C)C)NC(=O)[C@H](Cc1ccc2ccccc2c1)NC(=O)[C@H](Cc1ccc(OCCN)cc1)NC(=O)[C@H]1NC(=O)[C@H](CCC(N)=O)NC(=O)[C@H](Cc2c[nH]c3c(C)cccc23)NC(=O)[C@H]([C@@H](C)O)NC(=O)[C@H](CC(N)=O)NC(=O)[C@@H](NC(C)=O)C(C)(C)SSC1(C)C)C(=O)N(C)CC(=O)NCCC(N)=O [compound 224]	> 0.1 µM	0.101 to 0.5 µM	> 24 h	–	> 24 h
< 10 nM	< 1 nM	XNTXQXXXXKNX (Ac-[Pen]-NT-[W(7-Me)]-Q-[Pen]-Phe[4-(2-aminoethoxy)]-[2-Nal]-[a-MeLeu]-[Lys(Ac)]-N-[bA]-NH2; Pen-Pen disulfide) [SEQ ID NO: 201]	–	–	–	–	–
< 10 nM	< 1 nM	XNTXKXXXXKNK (Ac-[Pen]-NT-[W(7-Me)]-[Lys(Ac)]-[Pen]-Phe[4-(2-aminoethoxy)]-[2-Nal]-[a-MeLys]-[Lys(Ac)]-N-[(D)Lys]-NH2; Pen-Pen disulfide) [SEQ ID NO: 252]	–	–	–	–	–
< 10 nM	< 1 nM	Ac-[Pen]NT[Trp(7-Me)][Cit][Pen][AEF][2Nal][αMeK]K(Ac)N[dS]-NH2 (disulfide 1-6 (inferred)) [SEQ ID NO: 261]	–	–	–	–	–
< 10 nM	–	XNTXKXXXXKHX (Ac-[Pen]-N-T-[W(7-Me)]-[Lys(Ac)]-[Pen]-Phe[4-(2-aminoethoxy)]-[2-Nal]-[a-MeLys]-[Lys(Ac)]-H-[bA]-NH2; Pen-Pen disulfide) [SEQ ID NO: 272]	–	–	–	–	–
< 10 nM	–	Ac-[dR][Abu]QT[Trp(7-Me)]K(Ac)C[AEF][2Nal][αMeK]K(Ac)N[dK]-NH2 (thioether 2-7) [SEQ ID NO: 324]	–	–	–	–	–
< 10 nM	< 1 nM	XNTXKXXXXKNX (Ac-[Pen]-NT-[W(7-Me)]-[Lys(Ac)]-[Pen]-Phe[4-(2-aminoethoxy)]-[2-Nal]-[a-MeLys]-[Lys(Ac)]-N-[bA]-NH2; Pen-Pen disulfide) [SEQ ID NO: 242]	–	–	–	–	–
< 10 nM	< 1 nM	Ac-[Pen]NT[Trp(7-nPr)]K(Ac)[Pen][AEF][2Nal][αMeK]K(Ac)N[dL]-NH2 (disulfide 1-6 (inferred)) [SEQ ID NO: 285]	–	–	–	–	–
